In publication PMC5404848 (Cell Chemical Biology, 2017):

How the values were obtained:
HCT116 cells [1] = assay: Western blot analysis of USP2a targets Aurora A and cyclin A1; conditions: 5 μM and 20 μM, 48 hr
Procedure: Total cell lysates were prepared with RIPA buffer (Sigma Aldrich) containing protease inhibitor cocktail (Sigma Aldrich) alone or with phosphatase inhibitor cocktail (Roche). Following the electrophoresis and transfer, PVDF membranes were blocked with 4% BSA (BioShop) in TBS-N buffer and incubated with primary antibody at 4°C overnight. After four washes, the addition of secondary antibodies and additional four washes, the detection was performed using Clarity Western ECL Substrate (BioRad) and ChemiDoc MP system (BioRad). The densitometry analysis was performed with Image Lab software (BioRad). All measured values, besides cyclin D1 stability experiment, were normalized to GAPDH or α-tubulin expression level.

HCT116 p53^−/− cells = assay: MTT assay (cell viability), 6 days treatment; assay type: cell-based, Human; conditions: for GI50: HCT116 p53^−/−, MTT assay
Procedure: (§1) To test the biological activity of the compounds, we performed MTT (3-(4,5-dimethylthiazol-2-yl)-2,5-diphenyltetrazolium bromide) and lactate dehydrogenase (LDH) release assays. […] To track not only the toxic (lethal) but also growth-inhibitory (GI) effect in the MTT assay, we treated the cells for 6 days.
(§2) For MTT assay, the cells were seeded on 96-well transparent plates and treated the next day with the compounds or DMSO for 6 days. Thiazolyl Blue Tetrazolium Bromide (MTT, Sigma Aldrich) was added for 60 minutes to a final concentration of […]. The medium was removed and MTT crystals were dissolved in isopropanol supplemented with 40 mM HCl. The absorbance was measured with Infinite 200 microplate reader (Tecan Group Ltd.) at 570 nm with the reference wavelength 650 nm for background subtraction.

HCT116 p53^wt cells [2] = assay: MTT assay (cell viability), 6 days treatment; assay type: cell-based, Human; conditions: for GI50: HCT116^wt, MTT assay
Procedure: as §1, §2

MCF-7 cells = assay: Western blot analysis of cyclin D1 expression; assay type: cell-based, Human; conditions: 10 μM, 48 hr
HCT116 p53^wt cells [3] = assay type: cell-based, Human
Excerpt: […]. To investigate this effect, we analyzed the cell-cycle distribution. Cells treated for 48 hr with LCAHA or DMSO were pulse-labeled with BrdU for 1 hr and stained with fluorescein isothiocyanate (FITC)-anti-bromodeoxyuridine (BrdU) antibody and propidium iodide (PI). […].
[…]. To track the progression through the S phase and G0/G1 arrest precisely, we analyzed FITC-positive and -negative cells separately for cell-cycle distribution using ModFit LT software.
[…]. After that, the cells were either harvested by trypsinization and fixed with 96% ethanol, or cultured for additional 3-9 hours in the absence of BrdU before harvesting and fixation. The cells were stained with PI and FITC-conjugated anti-BrdU antibody (BioLegend, cat. 364104) and analysed with Fortessa flow cytometer (Becton Dickinson). Cell cycle distribution was analysed using ModFit LT Software (Verity Software House).
Figure S2. PI-BrdU pulse-chase labeling of HCT116 cells for the evaluation of cell cycle progression following LCAHA treatment. […].
HCT116 p53wt cells were seeded on culture dishes in growth medium containing 3.3% FBS and treated […]
the end of the treatment half of the medium was collected in a falcon tube, and the other half was supplemented with BrdU in a final concentration of 10 µM. After one hour, the medium containing BrdU was removed and the cells were trypsinized and fixed (time “t0”) or cultured in the medium previously collected in the falcon tube for additional 3, 6 or 9 hours. After that time the cells were trypsinized, fixed and stained with FITC conjugated anti-BrdU antibody and propidium iodide (PI). The cells were analyzed by flow cytometry using BD Fortessa cell analyzer and BD […] software. All cells, as well as FITC positive (BrdU+, top panel) and FITC negative (BrdU-, bottom panel) counts were exported to separate files and analyzed separately using ModFit LT Software. The graphs show mean ± SD values from three independent experiments. The statistical significance was evaluated using one-way ANOVA with Tukey’s […]

HCT116 p53^wt cells [4] = assay: Cell numbers from pictures of Hoechst-stained cells; assay type: cell-based, Human; conditions: 3 days, DMSO 6452
Procedure: The cells were plated on the 96-well white, flat bottom plates (Falcon) and treated with DMSO, LCAHA or Staurosporine. For the detection of caspase activity Caspase-Glo 3/7 Assay System was used (Promega) according to the manufacturer’s instructions. Due to the observed growth-inhibitory properties of LCAHA the results were normalized to cell numbers, calculated from the pictures of Hoechst-stained cells seeded on transparent culture plates and treated identically as the cells seeded for caspase activity assay (mean nuclei number per picture was 6452 for 3 days treatment with DMSO, and 3957, 4229 and 2783 for the cells treated with increasing concentrations of LCAHA).

HCT116 cells [5] = assay: Membrane integrity LDH release assay; assay type: cell-based, Human; conditions: 48 hr of treatment
Procedure: To test the biological activity of the compounds, we performed MTT (3-(4,5-dimethylthiazol-2-yl)-2,5-diphenyltetrazolium bromide) and lactate dehydrogenase (LDH) release assays. In addition, the importance of p53 status was evaluated by the use of two variants of HCT116 cells: HCT116 p53^wt (wild-type) and HCT116 p53^−/−. To track not only the toxic (lethal) but also growth-inhibitory (GI) effect in the MTT assay, we treated the cells for 6 days. In the experiment the toxic effect, but not the GI effect, was expected to be accompanied by LDH release.
Membrane integrity LDH release assay was performed using CytoTox-ONE kit (Promega). The cells were seeded on 96-well black plates, and after 24 hours treated with the compounds or DMSO for 2 days. The assay was performed according to the manufacturer’s instructions. For each well the data was calculated as a % of total LDH content, measured for the lysed cells, treated in the same manner as cells on that well.

[6] = Homo sapiens, HCT-116, 144 h, 6 days
[7] = concentration range 2–20 μM, MTT, 6 days
[8] = 5 μM, 48 hr, nine hours after BrdU pulse

SMILES: C[C@H](CCC(=O)NO)[C@H]1CC[C@H]2[C@@H]3CC[C@@H]4C[C@H](O)CC[C@]4(C)[C@H]3CC[C@]12C [LCAHA, N-(hydroxy)-3-hydroxylithocholanamide]
- expression level of Aurora A (HCT116 cells [1]): significant decrease
- expression level of cyclin A1 (HCT116 cells [1]): significant decrease
- GI50 (HCT116 p53^−/− cells; 6 days): 960 ± 290 nM
- GI50 (HCT116 p53^−/− cells; [6]): < 1000 nM
- LD50 (HCT116 p53^−/− cells; Homo sapiens, HCT-116, 144 h, read-out: LD50, HCT116 p53^−/−, MTT assay, 6 days): > 25 µM
- growth of cells inhibited (HCT116 p53^−/− cells; [7]): about 60%
- GI50 (HCT116 p53^wt cells [2]; 6 days): 870 ± 90 nM
- GI50 (HCT116 p53^wt cells [2]; [6]): < 1000 nM
- LD50 (concentration killing 50% of cells) (HCT116 p53^wt cells [2]; Homo sapiens, HCT-116, 144 h, read-out: LD50, HCT116^wt, MTT assay, 6 days): > 25 µM
- growth of cells inhibited (HCT116 p53^wt cells [2]; [7]): about 60%
- cyclin D1 expression (MCF-7 cells): significant decrease of cyclin D1 expression
- BrdU incorporation (rate of DNA synthesis) (HCT116 p53^wt cells [3]): dose-dependent decrease in the rate of DNA synthesis
- BrdU^− cells that left G0/G1 phase and entered the S phase (HCT116 p53^wt cells [3]; [8]): 20%
- proportion of BrdU^+ cells in G0/G1 phase (HCT116 p53^wt cells [3]; [8]): 24%
- proportion of BrdU^+ cells remaining in the S phase (HCT116 p53^wt cells [3]; [8]): 56%
- cell-cycle progression (HCT116 p53^wt cells [3]; 5 μM, control siRNA-transfected HCT116 cells): blocked the cell-cycle progression
- G0/G1 arrest (HCT116 p53^wt cells [3]; 5 or 10 μM, 48 hr): mild, but significant G0/G1 arrest
- mean nuclei number per picture (HCT116 p53^wt cells [4]; first (lowest) of increasing concentrations): 3957
- mean nuclei number per picture (HCT116 p53^wt cells [4]; second of increasing concentrations): 4229
- mean nuclei number per picture (HCT116 p53^wt cells [4]; third (highest) of increasing concentrations): 2783
- LDH release (HCT116 cells [5]): observed only at the concentrations corresponding to the high-concentration toxic effect
